From patent publication US20240299376A1, “METHOD OF TREATING A CONDITION USING A […] EFFECTIVE DOSE OF 1-(1-OXO-1,2-DIHYDROISOQUINOLIN-5-YL)-5-(TRIFLUOROMETHYL)-N-(2-(TRIFLUOROMETHYL)PYRIDIN-4-YL)-1H-PYRAZOLE-4-CARBOXAMIDE” (Janssen Pharmaceutica NV, priority 2021, published 2024)
Where two headings read alike, the source gives them in different places.

Test: FIH study 67856633LYM1001 plasma pharmacokinetics
Format: in vivo, human
Details: human, plasma
Text: The study consists of a dose escalation phase (Part 1), to determine the recommended Phase 2 dose(s) (RP2D[s]), followed by an expansion phase at the RP2D(s) (Part 2). The dose escalation phase is supported using an adaptive dose escalation strategy guided by the modified continual reassessment method (mCRM) based on a Bayesian Logistic Regression Model (BLRM) with escalation with overdose control (EWOC) principle. The mCRM design allows the use of all cumulative dose-limiting toxicities (DLT) data up to the current dose cohort.
In Part 1, subjects were enrolled in cohorts of daily oral doses at 50 mg, 100 mg, 200 mg (1×200 mg or 4×50 mg), 300 mg (3×100 mg or 6×50 mg), 400 mg (2×200 mg or 8×50 mg), and 600 mg (3×200 mg), and loading dosing cohorts—400 mg loading dose once daily for 14 days, followed by 300 mg once daily, and 300 mg loading dose twice daily for 7 days followed by 300 mg once daily. In Part 2, subjects received daily oral doses of 300 mg.
In Part 1, PK data were available in subjects receiving doses of 50 mg (1×50 mg), 100 mg (2×50 mg), 200 mg (4×50 mg or 1×200 mg), 300 mg (6×50 mg or 3×100 mg), 400 mg (8×50 mg or 2×200 mg), and 600 mg (3×200 mg). Pharmacokinetic data were also available from the loading dose regimens of 400 mg (8×50 mg) loading dose once daily for 14 days followed by 300 mg (6×50 mg) once daily, and 300 mg (6×50 mg) loading dose twice daily for 7 days followed by 300 mg (6×50 mg) once daily.

Q: What does the source list for `O=C(Nc1ccnc(C(F)(F)F)c1)c1cnn(-c2cccc3c(=O)[nH]ccc23)c1C(F)(F)F` [Compound A, 1-(1-oxo-1,2-dihydroisoquinolin-5-yl)-5-(trifluoromethyl)-N-[2-(trifluoromethyl)pyridin-4-yl]-1H-pyrazole-4-carboxamide]?
A: Cmax (oral, 100 mg, Cycle 2 Day 1, 50 mg capsule, cohort 2 × 50 mg, mean, read-out: Cmax): 19900 ng/mL; Tmax (oral, 100 mg, Cycle 2 Day 1, 50 mg capsule, cohort 2 × 50 mg, median, read-out: Tmax): 2 h; AUC (oral, 200 mg, Cycle 1 Day 1, 50 mg capsule, cohort 4 × 50 mg, Subject 100032 excluded, mean, read-out: AUCτ): 118 µg·h/mL; Cmax (oral, 200 mg, Cycle 1 Day 1, 50 mg capsule, cohort 4 × 50 mg, Subject 100032 excluded, mean, read-out: Cmax): 6750 ng/mL; Tmax (oral, 200 mg, Cycle 1 Day 1, 50 mg capsule, cohort 4 × 50 mg, Subject 100032 excluded, median, read-out: Tmax): 4 h; AUC (oral, 200 mg, Cycle 1 Day 1, 200 mg capsule, cohort 200 mg, mean, read-out: AUCτ): 61.9 µg·h/mL; Cmax (oral, 200 mg, Cycle 1 Day 1, 200 mg capsule, cohort 200 mg, mean, read-out: Cmax): 4060 ng/mL; Tmax (oral, 200 mg, Cycle 1 Day 1, 200 mg capsule, cohort 200 mg, median, read-out: Tmax): 4 h; AUC (oral, 200 mg, Cycle 1 Day 1, cohort 4 × 50 mg, with Subject 100032 data included, read-out: mean AUC): 139 µg·h/mL; Cmax (oral, 200 mg, Cycle 1 Day 1, cohort 4 × 50 mg, with Subject 100032 data included, read-out: mean Cmax): 8060 ng/mL; AUC (oral, 200 mg, Cycle 2 Day 1, 50 mg capsule, cohort 4 × 50 mg, Subject 100032 excluded, mean, read-out: AUCτ): 882 µg·h/mL; Cmax (oral, 200 mg, Cycle 2 Day 1, 50 mg capsule, cohort 4 × 50 mg, Subject 100032 excluded, mean, read-out: Cmax): 44800 ng/mL; Tmax (oral, 200 mg, Cycle 2 Day 1, 50 mg capsule, cohort 4 × 50 mg, Subject 100032 excluded, median, read-out: Tmax): 2 h; Cmax (oral, 200 mg, Cycle 2 Day 1, 200 mg capsule, cohort 200 mg, individual values, N = 2, read-out: Cmax): 25700 ng/mL; AUC (oral, 200 mg, Cycle 2 Day 1, 200 mg capsule, cohort 200 mg, read-out: AUCτ): 453 µg·h/mL; AUC (oral, 200 mg, Cycle 2 Day 1, cohort 4 × 50 mg, with Subject 100032 data included, read-out: mean AUC): 1140 µg·h/mL; Cmax (oral, 200 mg, Cycle 2 Day 1, cohort 4 × 50 mg, with Subject 100032 data included, read-out: mean Cmax): 58200 ng/mL; AUC (oral, 300 mg, Cycle 1 Day 1, 50 mg capsule, cohort 6 × 50 mg (300 mg QD), mean, n = 9, read-out: AUCτ): ~152 µg·h/mL; Cmax (oral, 300 mg, Cycle 1 Day 1, 50 mg capsule, cohort 6 × 50 mg (300 mg QD), mean, read-out: Cmax): ~8810 ng/mL; Tmax (oral, 300 mg, Cycle 1 Day 1, 50 mg capsule, cohort 6 × 50 mg (300 mg QD), median, read-out: Tmax): ~4 h; Cmax (oral, 300 mg, Cycle 1 Day 1, cohort 6 × 50 mg BID > QD (300 mg BID 7 days then 300 mg QD), mean, read-out: Cmax): 4310 ng/mL; Tmax (oral, 300 mg, Cycle 1 Day 1, cohort 6 × 50 mg BID > QD (300 mg BID 7 days then 300 mg QD), median, read-out: Tmax): ~6 h; AUC (oral, 300 mg, Cycle 2 Day 1, 50 mg capsule, cohort 6 × 50 mg (300 mg QD), mean, read-out: AUCτ): ~1140 µg·h/mL; Cmax (oral, 300 mg, Cycle 2 Day 1, 50 mg capsule, cohort 6 × 50 mg (300 mg QD), mean, read-out: Cmax): ~55200 ng/mL; Tmax (oral, 300 mg, Cycle 2 Day 1, 50 mg capsule, cohort 6 × 50 mg (300 mg QD), median, read-out: Tmax): ~4 h; Tmax (oral, 300 mg, Cycle 2 Day 1, cohort 6 × 50 mg BID > QD, individual values, N = 2, read-out: Tmax): ~3 h; AUC (oral, 400 mg, Cycle 1 Day 1, 50 mg capsule, cohort 8 × 50 mg, mean, read-out: AUCτ): 131 µg·h/mL; Cmax (oral, 400 mg, Cycle 1 Day 1, 50 mg capsule, cohort 8 × 50 mg, mean, read-out: Cmax): 7560 ng/mL; Tmax (oral, 400 mg, Cycle 1 Day 1, 50 mg capsule, cohort 8 × 50 mg, median, read-out: Tmax): 3 h; AUC (oral, 400 mg, Cycle 1 Day 1, 200 mg capsule, cohort 2 × 200 mg food adlib, mean, read-out: AUCτ): 112 µg·h/mL; Cmax (oral, 400 mg, Cycle 1 Day 1, 200 mg capsule, cohort 2 × 200 mg food adlib, mean, read-out: Cmax): 6830 ng/mL; Tmax (oral, 400 mg, Cycle 1 Day 1, 200 mg capsule, cohort 2 × 200 mg food adlib, median, read-out: Tmax): 4.5 h; AUC (oral, 400 mg, Cycle 1 Day 1, 200 mg capsule, cohort 2 × 200 mg, mean, read-out: AUCτ): 68 µg·h/mL; Cmax (oral, 400 mg, Cycle 1 Day 1, 200 mg capsule, cohort 2 × 200 mg, mean, read-out: Cmax): 4190 ng/mL; Tmax (oral, 400 mg, Cycle 1 Day 1, 200 mg capsule, cohort 2 × 200 mg, median, read-out: Tmax): 5 h; AUC (oral, 400 mg, Cycle 1 Day 1, cohort 8 × 50 mg > 6 × 50 mg (400 mg QD loading 14 days then 300 mg QD), Subject 100070 excluded, mean, read-out: AUCτ): 186 µg·h/mL; Cmax (oral, 400 mg, Cycle 1 Day 1, cohort 8 × 50 mg > 6 × 50 mg (400 mg QD loading 14 days then 300 mg QD), Subject 100070 excluded, mean, read-out: Cmax): 10300 ng/mL; Tmax (oral, 400 mg, Cycle 1 Day 1, cohort 8 × 50 mg > 6 × 50 mg (400 mg QD loading 14 days then 300 mg QD), median, read-out: Tmax): 3 h; AUC (oral, 400 mg, Cycle 1 Day 1, cohort 8 × 50 mg > 6 × 50 mg, with Subject 100070 data included, read-out: mean AUC): 237 µg·h/mL; Cmax (oral, 400 mg, Cycle 1 Day 1, cohort 8 × 50 mg > 6 × 50 mg, with Subject 100070 data included, read-out: mean Cmax): 12800 ng/mL; AUC (oral, 400 mg, Cycle 2 Day 1, 50 mg capsule, cohort 8 × 50 mg, mean, read-out: AUCτ): 1590 µg·h/mL; Cmax (oral, 400 mg, Cycle 2 Day 1, 50 mg capsule, cohort 8 × 50 mg, mean, read-out: Cmax): 94100 ng/mL; Tmax (oral, 400 mg, Cycle 2 Day 1, 50 mg capsule, cohort 8 × 50 mg, median, read-out: Tmax): 3.5 h; AUC (oral, 400 mg, Cycle 2 Day 1, 200 mg capsule, cohort 2 × 200 mg food adlib, mean, read-out: AUCτ): 1330 µg·h/mL; Cmax (oral, 400 mg, Cycle 2 Day 1, 200 mg capsule, cohort 2 × 200 mg food adlib, mean, read-out: Cmax): 72300 ng/mL; Tmax (oral, 400 mg, Cycle 2 Day 1, 200 mg capsule, cohort 2 × 200 mg food adlib, median, read-out: Tmax): 8 h; AUC (oral, 400 mg, Cycle 2 Day 1, 200 mg capsule, cohort 2 × 200 mg, mean, read-out: AUCτ): 824 µg·h/mL; Cmax (oral, 400 mg, Cycle 2 Day 1, 200 mg capsule, cohort 2 × 200 mg, mean, read-out: Cmax): 43200 ng/mL; Tmax (oral, 400 mg, Cycle 2 Day 1, 200 mg capsule, cohort 2 × 200 mg, median, read-out: Tmax): 3 h; AUC (oral, 600 mg, Cycle 1 Day 1, 200 mg capsule, cohort 3 × 200 mg, individual values, N = 2, read-out: AUCτ): 123 µg·h/mL; Cmax (oral, 600 mg, Cycle 1 Day 1, 200 mg capsule, cohort 3 × 200 mg, individual values, N = 2, read-out: Cmax): 7790 ng/mL; Tmax (oral, 600 mg, Cycle 1 Day 1, 200 mg capsule, cohort 3 × 200 mg, individual values, N = 2, read-out: Tmax): 3 h; Cmax (oral, Cycle 2 Day 1, cohort 8 × 50 mg > 6 × 50 mg (400 mg QD loading 14 days then 300 mg QD), Subject 100070 excluded, mean, read-out: Cmax): 72200 ng/mL; AUC (oral, Cycle 2 Day 1, cohort 8 × 50 mg > 6 × 50 mg, Subject 100070 excluded, mean, read-out: AUCτ): 1700 µg·h/mL; Tmax (oral, Cycle 2 Day 1, cohort 8 × 50 mg > 6 × 50 mg, Subject 100070 excluded, median, read-out: Tmax): 3 h; AUC (oral, Cycle 2 Day 1, cohort 8 × 50 mg > 6 × 50 mg, with Subject 100070 data included, read-out: mean AUC): 1810 µg·h/mL; Cmax (oral, Cycle 2 Day 1, cohort 8 × 50 mg > 6 × 50 mg, with Subject 100070 data included, read-out: mean Cmax): 79700 ng/mL; Tmax (po, 50 mg, Cycle 2 Day 1, 50 mg capsule, oral daily administration, read-out: median Tmax): 2 to 4 h; Tmax (po, 200 mg, Cycle 2 Day 1, 200 mg capsule, oral daily administration, read-out: median Tmax): 3 to 8 h; Tmax (po, first oral dose at Cycle 1 Day 1, doses of 50 to 600 mg, read-out: median Tmax): 3 to 6 h
